Test results published in publication PMC8550792, “Evolution of kinase polypharmacology across HSP90 drug discovery” (Cell Chemical Biology, 2021).

Tests used:
Test in all cases: biochemical
Format in all cases: biochemical
[1] = target: T1, 382 unique human kinases (Homo sapiens, UniProt P00533); conditions: EGFR, 10 uM; for remaining activity at 10 µM: read-out: % Enzyme Activity (relative to DMSO controls)
T1 construct: purchased Reaction Biology (HotSpot contract assay)

[2] = target: T2, 382 unique human kinases (Homo sapiens, UniProt P15056, V600A); conditions: BRAF (V600A), compound at 10 uM, duplicate values; for remaining activity at 10 µM: read-out: % Enzyme Activity (relative to DMSO controls)
T2 construct: purchased Reaction Biology (HotSpot contract assay)
T2 sequence (P15056 whole entry V600A): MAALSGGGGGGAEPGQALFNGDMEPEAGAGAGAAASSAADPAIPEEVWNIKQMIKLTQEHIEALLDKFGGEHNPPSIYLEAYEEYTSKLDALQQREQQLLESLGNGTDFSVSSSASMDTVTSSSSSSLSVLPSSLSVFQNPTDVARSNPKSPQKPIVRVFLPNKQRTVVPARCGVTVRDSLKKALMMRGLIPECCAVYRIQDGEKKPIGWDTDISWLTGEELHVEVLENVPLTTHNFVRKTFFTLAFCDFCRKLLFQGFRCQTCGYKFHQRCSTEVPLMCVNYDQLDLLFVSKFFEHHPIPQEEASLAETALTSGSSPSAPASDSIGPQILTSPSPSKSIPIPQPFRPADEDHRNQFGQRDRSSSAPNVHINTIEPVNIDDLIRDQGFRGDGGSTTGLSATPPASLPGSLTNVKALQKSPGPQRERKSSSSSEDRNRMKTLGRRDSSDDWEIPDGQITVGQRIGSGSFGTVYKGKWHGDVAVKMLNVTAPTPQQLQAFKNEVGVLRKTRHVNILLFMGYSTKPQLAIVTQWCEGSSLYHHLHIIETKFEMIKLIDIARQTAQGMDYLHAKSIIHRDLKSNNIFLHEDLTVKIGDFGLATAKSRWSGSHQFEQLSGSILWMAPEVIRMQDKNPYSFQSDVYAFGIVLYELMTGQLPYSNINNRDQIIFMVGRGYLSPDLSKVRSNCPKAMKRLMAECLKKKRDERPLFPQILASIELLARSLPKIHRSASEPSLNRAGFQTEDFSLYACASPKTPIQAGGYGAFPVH

[3] = target: T3, 382 unique human kinases (Homo sapiens, UniProt Q9H2G2); conditions: SLK/STK2, 10 uM; for remaining activity at 10 µM: read-out: % Enzyme Activity (relative to DMSO controls)
T3 construct: purchased Reaction Biology (HotSpot contract assay)

[4] = target: T4, 382 unique human kinases (Homo sapiens, UniProt Q9NYY3); conditions: kinase PLK2, compound 10 uM; for remaining activity at 10 µM: read-out: % Enzyme Activity (relative to DMSO controls)
T4 construct: purchased Reaction Biology (HotSpot contract assay)
T4 sequence (Q9NYY3 whole entry): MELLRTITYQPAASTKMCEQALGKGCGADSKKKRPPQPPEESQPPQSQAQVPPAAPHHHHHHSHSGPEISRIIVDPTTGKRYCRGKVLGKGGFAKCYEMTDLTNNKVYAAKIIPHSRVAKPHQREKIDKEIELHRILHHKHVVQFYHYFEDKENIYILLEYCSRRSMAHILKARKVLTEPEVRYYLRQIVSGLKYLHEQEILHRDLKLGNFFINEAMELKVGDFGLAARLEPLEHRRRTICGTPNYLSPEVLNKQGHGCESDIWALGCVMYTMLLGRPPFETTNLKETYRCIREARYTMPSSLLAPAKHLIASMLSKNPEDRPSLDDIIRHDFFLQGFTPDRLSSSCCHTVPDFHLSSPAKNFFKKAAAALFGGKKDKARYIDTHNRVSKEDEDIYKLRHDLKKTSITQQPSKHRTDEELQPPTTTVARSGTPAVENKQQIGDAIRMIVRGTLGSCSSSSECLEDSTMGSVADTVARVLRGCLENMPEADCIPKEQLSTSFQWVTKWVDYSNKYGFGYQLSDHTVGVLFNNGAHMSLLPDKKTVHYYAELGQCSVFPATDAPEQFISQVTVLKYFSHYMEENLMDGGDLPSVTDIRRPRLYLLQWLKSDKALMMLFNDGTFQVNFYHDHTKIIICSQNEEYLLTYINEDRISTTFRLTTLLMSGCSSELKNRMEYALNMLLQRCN

[5] = target: T5, 382 unique human kinases (Homo sapiens, UniProt P21802, V564F); conditions: FGFR2 (V564F), [ATP] 30 µM, compound 10 uM; for remaining activity at 10 µM: read-out: % Enzyme Activity (relative to DMSO controls)
T5 construct: purchased Reaction Biology (HotSpot contract assay)

[6] = target: T6, 382 unique human kinases (Homo sapiens, UniProt P49841); conditions: GSK3b, [ATP] 10 µM, compound 10 uM; for remaining activity at 10 µM: read-out: % Enzyme Activity (relative to DMSO controls)
T6 construct: purchased Reaction Biology (HotSpot contract assay)
T6 sequence (P49841 whole entry): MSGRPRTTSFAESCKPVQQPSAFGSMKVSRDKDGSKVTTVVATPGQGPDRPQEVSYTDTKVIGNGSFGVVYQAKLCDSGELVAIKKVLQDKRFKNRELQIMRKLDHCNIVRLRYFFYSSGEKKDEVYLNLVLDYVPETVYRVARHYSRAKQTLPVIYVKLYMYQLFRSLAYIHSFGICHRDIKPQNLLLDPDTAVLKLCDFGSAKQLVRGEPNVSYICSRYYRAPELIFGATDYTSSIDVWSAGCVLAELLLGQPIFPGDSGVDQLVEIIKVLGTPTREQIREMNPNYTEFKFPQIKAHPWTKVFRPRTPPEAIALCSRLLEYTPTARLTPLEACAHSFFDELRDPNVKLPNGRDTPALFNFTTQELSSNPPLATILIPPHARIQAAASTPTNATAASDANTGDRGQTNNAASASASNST

[7] = target: T7, 382 unique human kinases (Homo sapiens, UniProt Q8IVT5); conditions: KSR1, 10 uM; for remaining activity at 10 µM: read-out: % Enzyme Activity (relative to DMSO controls)
T7 construct: purchased Reaction Biology (HotSpot contract assay)
T7 sequence (Q8IVT5 1-923): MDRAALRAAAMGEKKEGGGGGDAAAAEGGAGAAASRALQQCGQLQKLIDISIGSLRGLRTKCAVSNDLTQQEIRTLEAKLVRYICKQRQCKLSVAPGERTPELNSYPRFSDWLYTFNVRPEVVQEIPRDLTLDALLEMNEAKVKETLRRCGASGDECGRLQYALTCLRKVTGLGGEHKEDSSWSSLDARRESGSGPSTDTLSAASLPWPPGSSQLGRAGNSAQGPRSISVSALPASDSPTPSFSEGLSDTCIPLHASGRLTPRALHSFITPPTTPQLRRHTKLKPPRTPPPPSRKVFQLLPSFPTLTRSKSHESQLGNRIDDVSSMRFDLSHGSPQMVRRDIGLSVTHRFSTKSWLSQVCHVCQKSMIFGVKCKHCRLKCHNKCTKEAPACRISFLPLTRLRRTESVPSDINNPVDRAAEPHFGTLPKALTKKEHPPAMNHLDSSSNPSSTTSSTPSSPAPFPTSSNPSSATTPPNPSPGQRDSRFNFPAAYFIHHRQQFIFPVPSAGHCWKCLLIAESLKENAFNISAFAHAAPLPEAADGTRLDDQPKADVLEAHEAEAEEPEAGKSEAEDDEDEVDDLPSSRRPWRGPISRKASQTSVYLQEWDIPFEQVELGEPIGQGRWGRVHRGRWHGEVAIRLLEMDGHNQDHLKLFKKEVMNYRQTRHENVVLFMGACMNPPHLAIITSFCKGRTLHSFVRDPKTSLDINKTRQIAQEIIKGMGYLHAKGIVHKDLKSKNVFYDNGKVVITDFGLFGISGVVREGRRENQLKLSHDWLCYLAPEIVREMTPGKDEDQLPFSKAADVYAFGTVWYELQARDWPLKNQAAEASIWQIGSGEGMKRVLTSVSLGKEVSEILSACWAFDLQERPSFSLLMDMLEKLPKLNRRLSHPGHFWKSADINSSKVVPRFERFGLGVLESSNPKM

[8] = target: T8, 382 unique human kinases (Homo sapiens, UniProt Q9UL54); conditions: TAOK2/TAO1, [ATP] 30 µM, compound 10 uM; for remaining activity at 10 µM: read-out: % Enzyme Activity (relative to DMSO controls)
T8 construct: purchased Reaction Biology (HotSpot contract assay)
T8 sequence (Q9UL54 1-1235): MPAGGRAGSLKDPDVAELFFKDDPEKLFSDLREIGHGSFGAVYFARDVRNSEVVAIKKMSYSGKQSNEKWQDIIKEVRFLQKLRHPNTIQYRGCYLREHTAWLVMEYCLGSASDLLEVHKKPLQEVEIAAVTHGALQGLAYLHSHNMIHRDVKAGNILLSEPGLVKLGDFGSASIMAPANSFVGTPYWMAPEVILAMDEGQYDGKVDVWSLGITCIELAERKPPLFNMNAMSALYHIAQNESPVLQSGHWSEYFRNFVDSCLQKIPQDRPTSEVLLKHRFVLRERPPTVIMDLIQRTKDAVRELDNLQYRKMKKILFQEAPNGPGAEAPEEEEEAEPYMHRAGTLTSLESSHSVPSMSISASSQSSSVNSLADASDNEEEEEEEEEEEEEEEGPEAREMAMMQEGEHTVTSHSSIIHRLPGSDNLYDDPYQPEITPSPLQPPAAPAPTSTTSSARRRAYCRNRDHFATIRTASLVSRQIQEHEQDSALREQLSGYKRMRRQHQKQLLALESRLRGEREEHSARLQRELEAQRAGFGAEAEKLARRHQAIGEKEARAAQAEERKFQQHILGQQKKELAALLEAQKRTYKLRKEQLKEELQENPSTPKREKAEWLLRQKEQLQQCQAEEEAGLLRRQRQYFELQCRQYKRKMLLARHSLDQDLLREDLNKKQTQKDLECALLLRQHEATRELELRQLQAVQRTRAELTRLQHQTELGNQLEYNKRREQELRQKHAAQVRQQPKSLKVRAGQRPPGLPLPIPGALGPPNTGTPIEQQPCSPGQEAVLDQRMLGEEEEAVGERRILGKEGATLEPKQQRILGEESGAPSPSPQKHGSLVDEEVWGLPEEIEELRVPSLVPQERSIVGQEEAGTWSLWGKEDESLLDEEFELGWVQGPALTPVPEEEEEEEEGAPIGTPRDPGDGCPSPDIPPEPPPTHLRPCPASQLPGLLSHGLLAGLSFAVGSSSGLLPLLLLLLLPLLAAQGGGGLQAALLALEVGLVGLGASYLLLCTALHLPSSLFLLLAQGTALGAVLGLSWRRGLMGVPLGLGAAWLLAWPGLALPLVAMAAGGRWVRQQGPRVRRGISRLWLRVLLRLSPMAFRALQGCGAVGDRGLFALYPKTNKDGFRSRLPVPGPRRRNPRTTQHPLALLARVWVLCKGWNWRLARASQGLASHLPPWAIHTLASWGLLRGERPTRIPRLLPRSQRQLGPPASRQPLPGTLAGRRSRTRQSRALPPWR

[9] = target: T9, 382 unique human kinases (Homo sapiens, UniProt Q9UM73, F1174S); conditions: ALK (F1174S), [ATP] 20 µM, compound 10 uM; for remaining activity at 10 µM: read-out: % Enzyme Activity (relative to DMSO controls)
T9 construct: purchased Reaction Biology (HotSpot contract assay)
T9 sequence (Q9UM73 19-1620 F1174S): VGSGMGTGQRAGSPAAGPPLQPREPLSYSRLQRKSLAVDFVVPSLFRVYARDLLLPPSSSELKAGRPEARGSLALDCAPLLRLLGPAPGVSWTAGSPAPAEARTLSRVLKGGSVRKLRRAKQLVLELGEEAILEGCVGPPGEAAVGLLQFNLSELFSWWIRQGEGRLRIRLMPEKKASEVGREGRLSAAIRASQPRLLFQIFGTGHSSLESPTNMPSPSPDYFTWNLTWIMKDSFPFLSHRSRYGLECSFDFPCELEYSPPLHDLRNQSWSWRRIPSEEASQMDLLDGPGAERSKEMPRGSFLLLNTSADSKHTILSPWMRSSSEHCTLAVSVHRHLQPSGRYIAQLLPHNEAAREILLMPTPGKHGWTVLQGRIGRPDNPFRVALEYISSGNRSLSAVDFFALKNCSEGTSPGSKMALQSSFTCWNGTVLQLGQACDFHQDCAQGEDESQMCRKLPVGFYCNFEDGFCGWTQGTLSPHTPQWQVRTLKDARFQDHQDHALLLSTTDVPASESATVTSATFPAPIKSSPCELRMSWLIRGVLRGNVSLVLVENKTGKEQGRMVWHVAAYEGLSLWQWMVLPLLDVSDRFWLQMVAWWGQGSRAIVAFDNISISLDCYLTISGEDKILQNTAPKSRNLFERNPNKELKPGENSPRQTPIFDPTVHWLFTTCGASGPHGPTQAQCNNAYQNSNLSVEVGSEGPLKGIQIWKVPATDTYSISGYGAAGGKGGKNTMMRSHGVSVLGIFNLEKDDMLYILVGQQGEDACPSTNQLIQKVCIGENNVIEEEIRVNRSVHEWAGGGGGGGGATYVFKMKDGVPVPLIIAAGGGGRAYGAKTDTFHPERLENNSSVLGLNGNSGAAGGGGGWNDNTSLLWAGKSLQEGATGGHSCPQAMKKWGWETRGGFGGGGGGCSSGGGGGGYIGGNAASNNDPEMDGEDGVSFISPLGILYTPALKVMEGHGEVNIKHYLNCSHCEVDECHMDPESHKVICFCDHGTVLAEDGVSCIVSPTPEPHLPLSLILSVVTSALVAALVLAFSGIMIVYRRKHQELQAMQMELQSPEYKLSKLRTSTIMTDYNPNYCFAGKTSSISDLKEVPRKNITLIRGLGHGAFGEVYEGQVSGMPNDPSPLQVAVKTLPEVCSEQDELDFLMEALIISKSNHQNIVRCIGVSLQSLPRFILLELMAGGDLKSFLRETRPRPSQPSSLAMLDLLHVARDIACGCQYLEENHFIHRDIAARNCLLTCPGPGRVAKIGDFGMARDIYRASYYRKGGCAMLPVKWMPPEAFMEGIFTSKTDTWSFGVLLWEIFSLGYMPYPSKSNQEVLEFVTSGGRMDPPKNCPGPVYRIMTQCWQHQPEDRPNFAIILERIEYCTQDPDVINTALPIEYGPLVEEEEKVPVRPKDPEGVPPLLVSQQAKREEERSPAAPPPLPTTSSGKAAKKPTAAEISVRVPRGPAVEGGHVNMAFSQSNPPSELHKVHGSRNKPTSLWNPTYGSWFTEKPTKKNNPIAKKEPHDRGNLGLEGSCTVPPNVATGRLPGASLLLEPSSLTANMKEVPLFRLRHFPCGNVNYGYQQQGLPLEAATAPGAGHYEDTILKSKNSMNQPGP

[10] = target: T10, 382 unique human kinases (Homo sapiens, UniProt Q9UM73, G1269A); conditions: ALK (G1269A), [ATP] 2.5 µM, compound 10 uM; for remaining activity at 10 µM: read-out: % Enzyme Activity (relative to DMSO controls)
T10 construct: purchased Reaction Biology (HotSpot contract assay)
T10 sequence (Q9UM73 19-1620 G1269A): as the sequence (Q9UM73 19-1620 F1174S) above, with S1156F, G1251A counted along it

T1 sequence (P00533 25-1210): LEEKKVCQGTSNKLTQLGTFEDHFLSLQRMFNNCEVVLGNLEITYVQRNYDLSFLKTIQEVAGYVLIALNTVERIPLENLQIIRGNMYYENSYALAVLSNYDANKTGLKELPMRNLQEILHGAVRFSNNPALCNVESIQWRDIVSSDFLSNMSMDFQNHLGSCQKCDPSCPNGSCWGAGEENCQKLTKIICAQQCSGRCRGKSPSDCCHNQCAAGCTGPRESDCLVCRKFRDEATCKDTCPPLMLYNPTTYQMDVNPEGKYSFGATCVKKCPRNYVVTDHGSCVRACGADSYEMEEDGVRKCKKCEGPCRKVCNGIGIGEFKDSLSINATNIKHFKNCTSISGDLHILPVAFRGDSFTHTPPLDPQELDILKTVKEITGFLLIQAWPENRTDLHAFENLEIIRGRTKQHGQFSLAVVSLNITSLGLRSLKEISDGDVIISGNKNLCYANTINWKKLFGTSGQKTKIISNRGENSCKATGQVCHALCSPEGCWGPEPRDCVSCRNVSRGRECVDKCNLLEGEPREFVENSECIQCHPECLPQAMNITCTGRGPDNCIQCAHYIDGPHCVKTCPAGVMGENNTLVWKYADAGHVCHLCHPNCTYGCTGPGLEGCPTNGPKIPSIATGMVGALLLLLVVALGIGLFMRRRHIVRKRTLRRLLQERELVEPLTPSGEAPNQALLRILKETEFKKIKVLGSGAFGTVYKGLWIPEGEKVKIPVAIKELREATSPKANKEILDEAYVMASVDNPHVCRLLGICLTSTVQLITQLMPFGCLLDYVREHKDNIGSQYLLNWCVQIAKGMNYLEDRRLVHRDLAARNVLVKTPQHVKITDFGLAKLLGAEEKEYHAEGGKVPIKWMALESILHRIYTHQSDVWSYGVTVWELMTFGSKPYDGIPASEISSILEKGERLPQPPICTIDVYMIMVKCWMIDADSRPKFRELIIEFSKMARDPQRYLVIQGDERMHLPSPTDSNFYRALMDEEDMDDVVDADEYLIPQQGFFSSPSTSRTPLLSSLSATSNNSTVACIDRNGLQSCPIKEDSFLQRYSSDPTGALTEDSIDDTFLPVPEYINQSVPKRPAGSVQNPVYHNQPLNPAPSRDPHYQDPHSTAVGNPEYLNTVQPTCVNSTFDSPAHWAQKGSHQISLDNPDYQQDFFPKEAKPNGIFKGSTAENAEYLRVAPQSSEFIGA

Row | SMILES | remaining activity at 10 µM [1] | remaining activity at 10 µM [2] | remaining activity at 10 µM [3] | remaining activity at 10 µM [4] | % Enzyme Activity (relative to DMSO controls) [5] | remaining activity at 10 µM [5] | % Enzyme Activity (relative to DMSO controls) [6] | remaining activity at 10 µM [6] | % Enzyme Activity (relative to DMSO controls) [7] | remaining activity at 10 µM [7] | % Enzyme Activity (relative to DMSO controls) [8] | remaining activity at 10 µM [8] | % Enzyme Activity (relative to DMSO controls) [9] | remaining activity at 10 µM [9] | % Enzyme Activity (relative to DMSO controls) [10] | remaining activity at 10 µM [10] | % Enzyme Activity (relative to DMSO controls) [1] | % Enzyme Activity (relative to DMSO controls) [2] | % Enzyme Activity (relative to DMSO controls) [3] | % Enzyme Activity (relative to DMSO controls) [4]
1 | CC(C)c1cc(-c2n[nH]c(=O)n2-c2ccc3c(ccn3C)c2)c(O)cc1O [Ganetespib (STA9090)] | 76% | 119% | 79.5% | 86.1% | – | – | – | – | – | – | – | – | – | – | – | – | – | – | – | –
2 | CCNC(=O)c1noc(-c2cc(C(C)C)c(O)cc2O)c1-c1ccc(CN2CCOCC2)cc1 [Luminespib] | – | – | – | – | 98.77% | 99.4% | 110.01% | 110% | 97.63% | 98.8% | 95.89% | 96% | 97.77% | 98.7% | 90.09% | 90.3% | – | – | – | –
3 | CCNC(=O)c1noc(-c2cc(C(C)C)c(O)cc2O)c1-c1ccc(CN2CCOCC2)cc1 [Luminespib (AUY-922)] | 95.1% | 105% | 90.2% | 106% | – | – | – | – | – | – | – | – | – | – | – | – | 93.47% | 102.37% | 89.63% | 105.08%
4 | CC(C)c1cc(-c2n[nH]c(=O)n2-c2ccc3c(ccn3C)c2)c(O)cc1O [Ganetespib] | – | – | – | – | – | 41.2% | – | 29.4% | – | 99.8% | – | 58.9% | – | 50.7% | – | 55.7% | – | – | – | –
